Laboratory results: paper PMC6737244, “Cathelicidin Peptides Restrict Bacterial Growth via Membrane Perturbation and Induction of Reactive Oxygen Species” (mBio, 2019)
Ends that are not written are not given here.

Legend:
V. cholerae = test: CellROX ROS production, single-cell imaging; format: cell-based, Vibrio cholerae; conditions: 100 nM, 2.5 μM CellROX
Text: The assortment of E. coli genes that were differentially expressed after peptide treatment led us to suspect that B22a induced oxidative stress. Oxidative stress is often transient and challenging to detect due to a suite of enzymes in bacterial cells that can rapidly reduce oxidative species. We monitored the real-time accumulation of ROS in single cells of V. cholerae in the presence of CellROX, a cell-permeable redox dye that reacts with O2^– and ^·OH ([30]). CellROX is nonfluorescent in the reduced state, but upon oxidation, it binds double-stranded DNA and fluoresces strongly. Images were captured at 15-s intervals over 40 min, twice the doubling time of V. cholerae under these conditions. […] The number of fluorescent cells increased following treatment with 25, 50, or 100 nM B22 or B22a (Fig. S4), and a fluorescence burst due to the oxidation of CellROX was observed within 15 s of B22 treatment (Fig. 7A, bottom). The signal intensity peaked over the next 30 s and then dissipated after about 1 min. The loss in fluorescence intensity was followed by an abrupt shortening in cell length, a dramatic decrease in cell contrast, and bleb formation roughly 45 s later.

P. aeruginosa = test: Growth of cultures (OD600) with sublethal peptide; conditions: 20 nM, 2 h, CAMHB
V. cholerae biofilms = test: Established biofilm in flow cell, LIVE/DEAD staining
Vibrio cholerae AC53 = format: cell-based; conditions: CAMHB, 16 to 18 h, at least three independent assays
Procedure: (§1) MICs were determined by using the broth microdilution method based on the general recommendations of the Clinical and Laboratory Standards Institute (CLSI). Bacteria were grown in CAMHB overnight. They were then diluted into fresh medium the following morning and grown to early log phase. The cultures were then diluted to approximately 5 × 10^5 CFU ml^−1, and 100 μl was added to sterile 96-well polypropylene microtiter plates (Corning, NY, USA) preloaded with twofold dilutions of antimicrobial peptides. […] All MIC assays were determined from at least three independent assays.

[1] = system: Escherichia coli J53 AzideR; format: cell-based; conditions: CAMHB, 16 to 18 h, at least three independent assays
Procedure: as §1

[2] = system: Pseudomonas aeruginosa PAO1 oprD; format: cell-based; conditions: CAMHB, 16 to 18 h, at least three independent assays
Procedure: as §1

E. coli = test: Single-cell division time, time-lapse phase-contrast microscopy; format: cell-based, Escherichia coli; conditions: 30 nM, first three generations
Procedure: To confirm that sublethal levels of cathelicidins affected the growth of Gram-negative bacteria, the division of single cells of E. coli and E. cloacae was monitored. Cells were seeded into microfluidic chambers and grown under continuous flow, and time-lapse phase-contrast microscopy was used to record the cell division time in the presence or absence of B22a.
Imaging of individual cells was conducted using the CellAsic microfluidic perfusion system (ONIX) with integrated temperature controller and B04A bacterial microfluidic plates (EMD Millipore, Billerica, MA). The CellAsic ONIX FG software (v 5.0.2.0) was used to control flow rate and deliver fresh medium with or without antimicrobial peptide (AMP). The chambers were loaded by perfusion of 50 μl of a 10^6 cells/ml bacterial suspension at 2 lb/in^2 for 15 s to prime the cells followed by 4 lb/in^2 for 15 s to trap the cells. The chamber was then rinsed at 1 lb/in^2 for 30 s followed by 5 lb/in^2 for 5 min. To quickly switch solutions, medium was perfused at 10 lb/in^2 for 10 s, and then flow was reduced to 2 lb/in^2 for the remainder of the imaging.

Substance	Time to fluorescence burst due to oxidation of CellROX (V. cholerae)	Initial growth of P. aeruginosa relative to control (P. aeruginosa)	Overall biofilm biomass (V. cholerae biofilms)	Cell death in biofilm (V. cholerae biofilms; at 6 h)	MIC (Vibrio cholerae AC53)	MIC [1]	MIC [2]	Cell division time (E. coli)
FRKKLKKLFKKLSPVIPLLKLG [B22]	≤ 15 s	significantly reduced	–	–	–	–	–	–
FRKKLKKLFKKLSPVIPLLKLG-NH2 [B22a]	–	–	decreased the overall biomass by half	50%	4 µM	2 µM	2 µM	increased twofold
